For nine compounds, GI50 and TGI results are on record in PubChem BioAssay (NCI).

Among the test systems are MCF7 breast; UACC-257 melanoma; OVCAR-5 ovarian; KM12 colon; HCT-15 colon; SW-620 colon; OVCAR-8 ovarian; ACHN renal; BT-549 breast; PC-3 prostate.
Common to all, as to assay: NCI anticancer screen, dose series, 48 h

“And” between values parts separate entries of the source, which are not always exact repeats. Identical values can stand only once.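 Results reflect a 48-hour exposure of cells in 96-well plates to compound at five concentrations. At the GI50, growth is halved. The concentration for full growth arrest is given as TGI.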

For `CCCCCCCCCCCCNC(=O)N[C@H](C(=O)N[C@H]1/C=C/CCNC(=O)/C=C/[C@H](C)NC1=O)C(C)C`, the GI50 with MCF7 breast is 0.0577 µM; in the test with UACC-257 melanoma, 0.269 µM; in the test on OVCAR-5 ovarian, 0.0271 µM; with KM12 colon, 0.0222 µM; with HCT-15 colon it was 2.76 µM; in the test on SW-620 colon, 0.0504 µM. The GI50 with OVCAR-8 ovarian was 0.463 µM; with ACHN renal, 1.87 µM; with BT-549 breast it was 0.0228 µM; in the test with PC-3 prostate, 0.0154 µM. The TGI in the test on MCF7 breast was 15.6 µM; with UACC-257 melanoma, 1.85 µM; with OVCAR-5 ovarian, 0.114 µM; with KM12 colon, 0.0519 µM; in the test on HCT-15 colon, more than 100 µM; in the test with SW-620 colon it was 1.34 µM. In addition, the TGI in the test on OVCAR-8 ovarian was 4.19 µM; in the test with ACHN renal, more than 100 µM; in the test on BT-549 breast it was 0.0701 µM; with PC-3 prostate, 0.0665 µM.
For the compound `C=C1C(=O)O[C@@H]2C[C@@H]1CC[C@]1(C)O[C@H]1CC/C(C)=C/CC[C@@]2(C)O`, the GI50 in the test on MCF7 breast is 15.2 µM; in the test with UACC-257 melanoma, 11.3 µM; with OVCAR-5 ovarian, 28.6 µM; with KM12 colon, 16.2 µM; in the test on HCT-15 colon it was 8.51 µM; with SW-620 colon it was 15.8 µM. The GI50 was 22.3 µM in the test with OVCAR-8 ovarian, 16.9 µM with BT-549 breast and 96.3 µM in the test on PC-3 prostate. For the same compound, the TGI with MCF7 breast came to 36 µM; in the test with UACC-257 melanoma, 31.8 µM; in the test on OVCAR-5 ovarian, 96 µM; with KM12 colon, 34.3 µM; in the test on HCT-15 colon, 21.3 µM; in the test with SW-620 colon, 33.7 µM. The TGI is 57.8 µM in the test on OVCAR-8 ovarian, 39.3 µM in the test on BT-549 breast and more than 100 µM in the test on PC-3 prostate.
Regarding `CCC1(OC(=O)CNC)C(=O)OCc2c1cc1n(c2=O)Cc2cc3ccccc3nc2-1` (stereo unspecified), the TGI in the test with MCF7 breast is 0.198 µM; in the test on UACC-257 melanoma, 0.762 µM; in the test on OVCAR-5 ovarian it was 0.221 µM; with KM12 colon, 1.46 µM; in the test on HCT-15 colon it was more than 100 µM; in the test with SW-620 colon, 19.5 µM. Further, the TGI in the test on OVCAR-8 ovarian is more than 24.4 µM; in the test with ACHN renal, 0.0184 µM; in the test with BT-549 breast it was 5.11 µM; with PC-3 prostate it was more than 100 µM.
As to `c1ccc(COCC[P+](c2ccccc2)(c2ccccc2)c2ccccc2)cc1`, the GI50 in the test with MCF7 breast is 0.564 µM; with UACC-257 melanoma it was 0.378 µM; with OVCAR-5 ovarian, 2.85 µM; with KM12 colon it was 0.501 µM; with HCT-15 colon, 14.2 µM; with SW-620 colon, 1.83 µM. For the same compound, the GI50 with OVCAR-8 ovarian is 1.67 µM; with ACHN renal, 4.56 µM; in the test with BT-549 breast, 0.953 µM; in the test on PC-3 prostate it was 0.519 µM. Further, the TGI with MCF7 breast was 7.27 µM; with UACC-257 melanoma it was 3.77 µM; with OVCAR-5 ovarian, more than 100 µM; in the test on KM12 colon, 11.1 µM; with HCT-15 colon, more than 100 µM; with SW-620 colon, 37.7 µM. Also, the TGI came to 10.8 µM in the test with OVCAR-8 ovarian, 23.5 µM with ACHN renal, 15.5 µM with BT-549 breast and 5.32 µM with PC-3 prostate.
Regarding `C/C=C(\C)c1cc(=O)c2c(C)cc3c(c2o1)C(OC)(OC(C)=O)c1c(O)c(C2CC(C)(N(C)C)C(OC(C)=O)C(C)O2)cc(C2CC(N(C)C)C(OC(C)=O)C(C)O2)c1C3=O` (stereo unspecified), the TGI in the test on MCF7 breast was more than 100 µM; with OVCAR-5 ovarian, 9.75 µM; with KM12 colon, 8.24 µM; in the test with HCT-15 colon it was 6.9 µM; with SW-620 colon it was 4.94 µM; in the test on ACHN renal it was 1.52 µM. Also, the figures for the TGI in the test with BT-549 breast and in the test on PC-3 prostate were 7.47 µM and more than 100 µM, respectively.
As for `COc1cccc(CCNC(=O)CC(c2ccccc2)(c2ccccc2)c2ccccc2)c1`, the GI50 in the test with MCF7 breast is 21.5 µM; in the test with OVCAR-5 ovarian, 11.7 µM; in the test with KM12 colon, 4.75 µM; with HCT-15 colon, more than 100 µM; in the test with SW-620 colon it was 85.3 µM; in the test on OVCAR-8 ovarian, 4.98 µM. Also, the GI50 with ACHN renal is 7.84 µM; in the test on BT-549 breast, more than 100 µM; in the test with PC-3 prostate, 6.12 µM. Further, the TGI with MCF7 breast was more than 100 µM; with OVCAR-5 ovarian it was more than 100 µM; with KM12 colon it was more than 100 µM; with HCT-15 colon, more than 100 µM; in the test with SW-620 colon it was more than 100 µM; with OVCAR-8 ovarian, 47.7 µM. The TGI in the test with ACHN renal is 94.8 µM; in the test on BT-549 breast it was more than 100 µM; in the test on PC-3 prostate, more than 100 µM.
As to `C=C[C@H]1CN2CCc3c([nH]c4c([C@@H]5CCCN5C)c(O)ccc34)[C@@H]2C[C@@H]1C[C@H]1c2[nH]c3ccccc3c2CCN1C`, the TGI was 3.66 µM and 4.3 µM in the test on MCF7 breast; 3.29 µM and 3.31 µM and 3.39 µM in the test on OVCAR-5 ovarian; 2.61 µM and 2.99 µM with KM12 colon; 2.49 µM and 2.9 µM with HCT-15 colon; 3.3 µM and 2.96 µM with OVCAR-8 ovarian; 3.39 µM and 3.1 µM and 3.32 µM with ACHN renal. In addition, the TGI with BT-549 breast is 3.27 µM and 2.96 µM; with PC-3 prostate, 3.05 µM and 2.88 µM. Also, the GI50 in the test on KM12 colon is 1.15 µM; in the test on SW-620 colon, 2.48 µM.
With `O=c1c2cccc(F)c2sc2c(NCCCNCCO)nc3ccccc3c12`, the GI50 with MCF7 breast is 1.14 µM; in the test with UACC-257 melanoma, 2.03 µM; in the test on OVCAR-5 ovarian, 1.65 µM; with KM12 colon, 1.61 µM; in the test on HCT-15 colon, 1.25 µM; in the test with SW-620 colon, 1.22 µM. Further, the GI50 in the test with ACHN renal is 1.28 µM; in the test on BT-549 breast, 6.16 µM; with PC-3 prostate, 1.66 µM. The TGI with MCF7 breast turned out to be 2.53 µM; in the test with UACC-257 melanoma it was 3.99 µM; in the test with OVCAR-5 ovarian it was 3.07 µM; with KM12 colon, 3.04 µM; with HCT-15 colon, 2.65 µM; with SW-620 colon, 2.62 µM. Also, the TGI amounted to 2.54 µM in the test on ACHN renal, 19.8 µM with BT-549 breast and 3.31 µM in the test with PC-3 prostate.
As for `O=C1CC(C(=O)O)Cc2c(Br)ccc(O)c21` (stereo unspecified), the TGI in the test with MCF7 breast, in the test with UACC-257 melanoma, in the test on OVCAR-5 ovarian, in the test with KM12 colon, in the test with HCT-15 colon and in the test on OVCAR-8 ovarian was more than 100 µM throughout. Further, the TGI in the test on ACHN renal, in the test on BT-549 breast and in the test on PC-3 prostate was more than 100 µM in each case.
